From patent US20220409598A1, “METHOD OF CONTROLLING BLOOD SUGAR LEVEL AND TREATMENT OF DIABETES AND RELATED CONDITIONS” (ILDONG PHARMACEUTICAL CO., LTD., priority 2021, published 2022)

Assays:
[1] = test system: human hepatocytes; assay: Covalent protein binding in human hepatocytes; format: in vitro ADME
Protocol: The covalent binding (CVB) burden was estimated by determining the CVB of radiolabeled compound to human hepatocytes and factoring in both the daily dose and the fraction of metabolism leading to CVB. […] Reference Example 1 compound's dose over 260 mg a day was predicted to exceed the CVB burden threshold of 1 mg/day.

[2] = OGTT (Oral Glucose Tolerance Test) in SD rats; format: in vivo; conditions: 1 mg/kg
Protocol: Additionally, the results of the exposure and efficacy of Reference Example 1 compound (at 0.1 mg/kg, 0.3 mg/kg, and 1 mg/kg doses) in SD rats are shown in FIG. 6.

[3] = test system: hepatic transcription factors; assay: Transcription factor profiling in 2D HepG2 cell, various hepatic transcription factors; format: cell-based; conditions: 2D HepG2 cell, 0.3, 3.3, 10 μM; compared to fasiglifam

SMILES: CC#C[C@@H](CC(=O)O)c1ccc(O[C@@H]2CCc3c(-c4ccc(O[C@@H]5CCOC5)nc4)ccc(F)c32)cc1 [Reference Example 1, (S)-3-(4-(((R)-7-Fluoro-4-(6-(((R)-tetrahydrofuran-3-yl)oxy)pyridin-3-yl)-2,3-dihydro-1H-inden-1-yl)oxy)phenyl)hex-4-ynoic acid]
- Dose predicted to exceed the CVB burden threshold of 1 mg/day [1]: over 260 mg a day
- CVB Burden ([1]; daily dose 2 mg (human efficacious dose from PK/PD modeling)): 0.01 mg/day
- Covalent binding (CVB), +Aminobenzotriazole (CYP inhibitor) ([1]; human hepatocytes): 29.5 pmol/mg protein
- Covalent binding (CVB), +Borneol (UGT inhibitor) ([1]; human hepatocytes): 21.2 pmol/mg protein
- Covalent binding (CVB), compound ([1]; human hepatocytes, compound alone): 37.6 pmol/mg protein
- Reduction in glucose AUC in OGTT [2]: approximately 20.8%
- Effect on various transcription factor (TF) activities [3]: insignificant
